# In patent US5567692A, “9-[(substituted glycyl) amido)]-6-demethyl-6-deoxytetracyclines” (priority 1995, dated 1996):
# Structures can show the parent of a compound that is named as a salt. Where two headings read alike, the source gives them in different places.
# Columns and labels:
# Type in all cases: cell-based
# E. coli UBMS 88-1 Tet B = experiment: microbe, parasite or virus in culture; details: Escherichia coli, UBMS881TETB, 18 h
# E. coli J3272 Tet sens = experiment: MIC, agar dilution; details: Escherichia coli, J3272TETSENS, 18 h
# E. coli PRP1 Tet A = experiment: microbe, parasite or virus in culture; details: Escherichia coli, PRP1TETA, 18 h
# [1] = tested on: E. coli MC 4100 TNIOC Tet B; experiment: microbe, parasite or virus in culture; details: Escherichia coli, 18 h
# E. coli J3272 Tet C = experiment: microbe, parasite or virus in culture; details: Escherichia coli, J3272TETC, 18 h
# E. coli UBMS 89-1 Tet M = experiment: microbe, parasite or virus in culture; details: Escherichia coli, UBMS891TETM, 18 h
# [2] = tested on: E. coli UBMS 89-2 Tet sens.; experiment: MIC, agar dilution; details: Escherichia coli, 18 h
# E. coli J2175 = experiment: MIC, agar dilution; details: Escherichia coli, 18 h, read-out: MIC
# E. coli BAJ9003 IMP MUT = experiment: microbe, parasite or virus in culture; details: Escherichia coli, BAJ9003IMPMUT, 18 h
# E. coli UBMS 90-4 Tet M = experiment: microbe, parasite or virus in culture; details: Escherichia coli, UBMS904TETM, 18 h
# E. coli UBMS 90-5 = experiment: microbe, parasite or virus in culture; details: Escherichia coli, UBMS905, 18 h, E. coli UBMS 90-5; read-out: MIC
# E. coli #311 (MP) = experiment: MIC, agar dilution; details: Escherichia coli, 18 h
# E. coli ATCC 25922 = experiment: MIC, agar dilution; details: Escherichia coli, ATCC25922, 18 h
# E. coli J3272 Tet D = experiment: microbe, parasite or virus in culture; details: Escherichia coli, J3272TETD, 18 h
# S. marcescens FPOR 8733 = experiment: MIC, agar dilution; details: Serratia marcescens, FPOR8733, 18 h
# [3] = tested on: X. maltophilia NEMC 87210; experiment: MIC, agar dilution; details: Stenotrophomonas maltophilia, NEMC87210, 18 h, X. maltophilia NEMC 87210; read-out: MIC
# [4] = tested on: Ps. aeruginosa ATCC 27853; experiment: MIC, agar dilution; details: Pseudomonas aeruginosa, ATCC27853, 18 h
# S. aureus NEMC 8769 = experiment: MIC, agar dilution; details: Staphylococcus aureus, NEMC8769, 18 h
# S. aureus UBMS 88-4 = experiment: MIC, agar dilution; details: Staphylococcus aureus, UBMS884, 18 h, S. aureus UBMS 88-4
# [5] = tested on: S. aureus UBMS 88-5 Tet M; experiment: microbe, parasite or virus in culture; details: Staphylococcus aureus, UBMS885TETM, 18 h
# [6] = tested on: S. aureus UBMS 88-7 Tet K; experiment: microbe, parasite or virus in culture; details: Staphylococcus aureus, UBMS887TETK, 18 h
# [7] = tested on: S. aureus UBMS 90-1 Tet M; experiment: microbe, parasite or virus in culture; details: Staphylococcus aureus, UBMS901TETM, 18 h
# S. aureus UBMS 90-3 = experiment: MIC, agar dilution; details: Staphylococcus aureus, UBMS903, 18 h, S. aureus UBMS 90-3
# [8] = tested on: S. aureus UBMS 90-2 Tet M; experiment: microbe, parasite or virus in culture; details: Staphylococcus aureus, UBMS902TETM, 18 h
# S. aureus IVES 2943 = experiment: MIC, agar dilution; details: Staphylococcus aureus, IVES2943, 18 h, S. aureus IVES 2943; read-out: MIC
# S. aureus ROSE (MP) = experiment: MIC, agar dilution; details: Staphylococcus aureus, 18 h
# S. aureus SMITH (MP) = experiment: MIC, agar dilution; details: Staphylococcus aureus, 18 h
# S. aureus IVES 1983 = experiment: MIC, agar dilution; details: Staphylococcus aureus, IVES1983, 18 h, S. aureus IVES 1983; read-out: MIC
# S. aureus ATCC 29213 = experiment: MIC, agar dilution; details: Staphylococcus aureus, ATCC29213, 18 h, S. aureus ATCC 29213
# [9] = tested on: S. hemolyticus AVHAH 88-3; experiment: MIC, agar dilution; details: Streptococcus pyogenes, AVHAH883, 18 h
# Enterococcus 12201 = experiment: MIC, agar dilution; details: Enterococcus, 12201, 18 h
# E. faecalis ATCC 29212 = experiment: MIC, agar dilution; details: Enterococcus faecalis, ATCC29212, 18 h
# [10] = tested on: Staphylococcus aureus, (methicillin-susceptible); experiment: MIC range, recent clinical and veterinary isolates; details: Staphylococcus aureus, 18 h, read-out: MIC Range
# Enterococcus faecalis = experiment: MIC range, recent clinical and veterinary isolates; details: 18 h, read-out: MIC Range
# Enterococcus faecium = experiment: MIC range, recent clinical and veterinary isolates; details: 18 h, read-out: MIC Range
# Streptococcus pyogenes = experiment: MIC range, recent clinical and veterinary isolates; details: 18 h, read-out: MIC Range
# Streptococcus agalactiae = experiment: MIC range, recent clinical and veterinary isolates; details: 18 h, read-out: MIC Range
# Streptococcus pneumoniae = experiment: MIC range, recent clinical and veterinary isolates; details: 18 h, read-out: MIC Range
# Klebsiella oxytoca = experiment: MIC range, recent clinical and veterinary isolates; details: 18 h, read-out: MIC Range
# Citrobacter freundii = experiment: MIC range, recent clinical and veterinary isolates; details: 18 h, read-out: MIC Range
# Citrobacter diversus = experiment: MIC range, recent clinical and veterinary isolates; details: Citrobacter koseri, 18 h, read-out: MIC Range
# Enterobacter cloacae = experiment: MIC range, recent clinical and veterinary isolates; details: 18 h, read-out: MIC Range
# Enterobacter aerogenes = experiment: MIC range, recent clinical and veterinary isolates; details: Klebsiella aerogenes, 18 h, read-out: MIC Range
# Proteus mirabilis = experiment: MIC range, recent clinical and veterinary isolates; details: 18 h, read-out: MIC Range
# Proteus vulgaris = experiment: MIC range, recent clinical and veterinary isolates; details: 18 h, read-out: MIC Range
# Pseudomonas aeruginosa = experiment: MIC range, recent clinical and veterinary isolates; details: 18 h, read-out: MIC Range
# Xanthamonas maltophilia = experiment: MIC range, recent clinical and veterinary isolates; details: 18 h, read-out: MIC Range
# Moraxella catarrhalis = experiment: MIC range, recent clinical and veterinary isolates; details: 18 h, read-out: MIC Range
# Haemophilus influenzae = experiment: MIC range, recent clinical and veterinary isolates; details: 18 h, [15] isolates
# [11] = tested on: Pasturella multocida (Veterinary); experiment: MIC range, recent clinical and veterinary isolates; details: 18 h, [17] isolates
# [12] = tested on: Bordetella bronchiseptica (Veterinary); experiment: MIC range, recent clinical and veterinary isolates; details: Bordetella bronchiseptica, 18 h, read-out: MIC Range
# [13] = tested on: Bacteroides fragilis group; experiment: MIC range, recent clinical and veterinary isolates; details: Bacteroides fragilis, 18 h, read-out: MIC Range
# Clostridium difficile = experiment: MIC range, recent clinical and veterinary isolates; details: Clostridioides difficile, 18 h, read-out: MIC Range
# Clostridium perfringens = experiment: microbe, parasite or virus in culture; details: [16] isolates
# Clostridium spp. = experiment: MIC range, recent clinical and veterinary isolates; details: [9] isolates
compound,measurement,setting,value
"CC(Br)C(=O)Nc1ccc2c(c1O)C(=O)C1=C(O)[C@]3(O)C(=O)C(C(N)=O)=C(O)[C@@H](N(C)C)C3CC1C2 (stereo partly drawn) [S, [4S-(4alpha,12aalpha)]-9-[(2-Bromo-1-oxopropyl)amino]-4-(dimethylamino)-1,4,4a,5,5a,6,11,12a-octahydro-3,10,12,12a-tetrahydroxy-1,11-dioxo-2-naphthacenecarboxamide dihydrochloride]",MIC,E. coli UBMS 88-1 Tet B,> 32 µg/mL
same,MIC,E. coli J3272 Tet sens,4 µg/mL
same,MIC,E. coli PRP1 Tet A,> 32 µg/mL
same,MIC,[1],> 32 µg/mL
same,MIC,E. coli J3272 Tet C,> 32 µg/mL
same,MIC,E. coli UBMS 89-1 Tet M,> 32 µg/mL
same,MIC,[2],16 µg/mL
same,MIC,E. coli J2175,16 µg/mL
same,MIC,E. coli BAJ9003 IMP MUT,1 µg/mL
same,MIC,E. coli UBMS 90-4 Tet M,> 32 µg/mL
same,MIC,E. coli UBMS 90-5,8 µg/mL
same,MIC,E. coli #311 (MP),8 µg/mL
same,MIC,E. coli ATCC 25922,8 µg/mL
same,MIC,E. coli J3272 Tet D,> 32 µg/mL
same,MIC,S. marcescens FPOR 8733,> 32 µg/mL
same,MIC,[3],16 µg/mL
same,MIC,"[4]; Ps. aeruginosa ATCC 27853, read-out: MIC",> 32 µg/mL
same,MIC,S. aureus NEMC 8769; read-out: MIC,0.25 µg/mL
same,MIC,S. aureus UBMS 88-4; read-out: MIC,2 µg/mL
same,MIC,[5],32 µg/mL
same,MIC,[6],16 µg/mL
same,MIC,[7],32 µg/mL
same,MIC,S. aureus UBMS 90-3; read-out: MIC,2 µg/mL
same,MIC,[8],16 µg/mL
same,MIC,S. aureus IVES 2943,32 µg/mL
same,MIC,S. aureus ROSE (MP),> 32 µg/mL
same,MIC,S. aureus SMITH (MP),1 µg/mL
same,MIC,S. aureus IVES 1983,32 µg/mL
same,MIC,S. aureus ATCC 29213; read-out: MIC,2 µg/mL
same,MIC,[9],8 µg/mL
same,MIC,Enterococcus 12201,32 µg/mL
same,MIC,E. faecalis ATCC 29212,16 µg/mL
"CN(C)[C@@H]1C(O)=C(C(N)=O)C(=O)[C@@]2(O)C(O)=C3C(=O)c4c(O)cccc4[C@@](C)(O)[C@H]3C[C@@H]12 [T, Tetracycline]",MIC,E. coli J3272 Tet sens,1 µg/mL
same,MIC,E. coli J2175,1 µg/mL
same,MIC,E. coli UBMS 90-5,0.5 µg/mL
same,MIC,E. coli ATCC 25922,0.5 µg/mL
same,MIC,S. marcescens FPOR 8733,> 32 µg/mL
same,MIC,[4],8 µg/mL
same,MIC,S. aureus NEMC 8769,0.06 µg/mL
same,MIC,S. aureus UBMS 88-4,0.12 µg/mL
same,MIC,S. aureus UBMS 90-3,0.12 µg/mL
same,MIC,S. aureus SMITH (MP); S. aureus SMITH (MP),0.12 µg/mL
same,MIC,S. aureus ATCC 29213,< 0.015 µg/mL
same,MIC,[9],0.5 µg/mL
same,MIC,Enterococcus 12201,32 µg/mL
same,MIC,[10],0.12 to 1 µg/mL
same,MIC,Enterococcus faecalis,0.12 to 64 µg/mL
same,MIC,Enterococcus faecium,0.12 to 64 µg/mL
same,MIC,Streptococcus pyogenes,0.12 to 16 µg/mL
same,MIC,Streptococcus agalactiae,0.25 to 64 µg/mL
same,MIC,Streptococcus pneumoniae,0.12 to 2 µg/mL
same,MIC,Klebsiella oxytoca,0.5 to 1 µg/mL
same,MIC,Citrobacter freundii,0.5 to 16 µg/mL
same,MIC,Citrobacter diversus,0.5 to 4 µg/mL
same,MIC,Enterobacter cloacae,0.5 to 2 µg/mL
same,MIC,Enterobacter aerogenes,0.5 to 1 µg/mL
same,MIC,Proteus mirabilis,0.5 to 64 µg/mL
same,MIC,Proteus vulgaris,0.25 to 64 µg/mL
same,MIC,Pseudomonas aeruginosa,2 to 32 µg/mL
same,MIC,Xanthamonas maltophilia,8 to 16 µg/mL
same,MIC,Moraxella catarrhalis,0.06 to 0.5 µg/mL
same,MIC,Haemophilus influenzae,1 to 32 µg/mL
same,MIC,[11],0.06 to 16 µg/mL
same,MIC,[12],0.12 to 0.25 µg/mL
same,MIC,[13],0.25 to 32 µg/mL
same,MIC,Clostridium difficile,0.12 to 32 µg/mL
same,MIC Range,Clostridium perfringens,0.015 to 16 µg/mL
same,MIC Range,Clostridium spp.,0.015 to 64 µg/mL
